Source: patent EP4023291A1, “FAT METABOLISM PROMOTER” (Asahi Group Holdings, Ltd., priority 2019, dated 2021)

Experiments:
3T3-L1 cells = test: Test 4: lipolysis test, glycerol released into culture supernatant of differentiated adipocytes; assay type: cell-based, Mouse; conditions: for amount of released glycerol, comparison with control: against Comparative Example 4 (0.1% ethanol), one-way ANOVA, Dunnett's test; for control ratio: amount of glycerol relative to medium of Comparative Example 4, Average: culture 2 days, 0.1% ethanol, 0.1 µM noradrenaline, ethyl caproate 0/0.1/1/10 ppm in Comparative Example 5/Examples 6/7/8
Procedure: In the present test, the lipolysis-promoting effect of the promoter of the present embodiment was tested by quantifying glycerol released into culture supernatant through decomposition of fat accumulated in adipocytes. Mouse embryonic 3T3-L1 cells, which are progenitor cells of adipocytes and were used in the present test, were induced to differentiate to form adipocytes. The present test was carried out in accordance with a method described in "Effects of Quercetin Glucosides on Dietinduced Obesity in Mice - The Lipolytic Activity of Quercetin -" (Tateishi et al., Japanese Pharmacology & Therapeutics 2009; 37(2): 123-131). The specific testing method of the present test and the results of the test are shown in the following.
In the present test, first, 3T3-L1 cells were suspended in Dulbecco's Modified Eagle medium (manufactured by FUJIFILM Wako Pure Chemical Corporation) (hereinafter, also referred to as "DMEM medium") to which penicillin-streptomycin (manufactured by Thermo Fisher Scientific, Inc.) and fetal bovine serum (manufactured by Sigma-Aldrich Co. LLC) had been added to reach concentrations of 100 Unit/mL, 100 µg/mL, and 10%, respectively, and seeded in a 12-well plate.
The 3T3-L1 cells were cultured under conditions of 5% CO2 and 37°C until the cells became confluent (a state in which cells are totally covering the surface of a culture vessel). Two days after becoming confluent, the medium was exchanged with a medium obtained by adding dexamethasone (manufactured by NACALAI TESQUE, INC.), 3-isobutyl-1-methylxanthine (manufactured by NACALAI TESQUE, INC.), and insulin (manufactured by NACALAI TESQUE, INC.) to DMEM medium to reach concentrations of 0.25 µM, 0.5 mM, and 10 µg/mL, respectively. Thereafter, the 3T3-L1 cells were cultured at 5% CO2 and 37°C for 2 days to induce the cells to differentiate into adipocytes.
After the induction of differentiation, medium exchange with a medium obtained by adding insulin to DMEM medium to reach a concentration of 5 µg/mL was performed every 2 or 3 days, and differentiation was maintained by culturing at 5% CO2 and 37°C for 12 days in total. Thereafter, a medium is prepared as a test medium by adding penicillin-streptomycin (manufactured by Thermo Fisher Scientific, Inc.) and fetal bovine serum (manufactured by Sigma-Aldrich Co. LLC) to DMEM medium free of phenol red (1.0 g/L glucose) (manufactured by NACALAI TESQUE, INC.) to reach concentrations of 100 Unit/mL, 100 µg/mL, and 10%, respectively, and components shown in Table 4 were added to the test medium to reach concentrations shown in Table 4. The medium for the 3T3-L1 cells after induction of differentiation was exchanged with a medium to which components of any of Comparative Examples 4, 5 or Examples 6 to 8 had been added, and the 3T3-L1 cells were cultured at 5% CO2 and 37°C for 2 days.
Ethyl caproate manufactured by Tokyo Chemical Industry Co., Ltd. was used for the ethyl caproate, ethanol manufactured by FUJIFILM Wako Pure Chemical Corporation was used for the ethanol, and noradrenaline manufactured by NACALAI TESQUE, INC. was used for the noradrenaline.
After culturing for 2 days, the culture supernatant was collected, and glycerol released into the culture supernatant was quantified with a Glycerol Assay kit (Cell-Based) (manufactured by Abcam). The ratio of the amount of glycerol in each medium to which the components of any of Comparative Example 5 and Examples 6 to 8 had been added relative to the amount of glycerol in the medium to which the component of Comparative Example 4 had been added (hereinafter, referred to as "control ratio") was determined to obtain the average ± standard error.
In the present test, statistical test was carried out by multiple comparison test with one-way analysis of variance (one-way ANOVA) followed by Dunnett's test. Significance levels of p < 0.05 were each determined to be a significant difference. These analyses were all performed with SPSS version 23 (manufactured by SPSS).

TRPA1 = target: T1, TRPA1 (Homo sapiens, UniProt O75762); test: Test 5: TRPA1 activity test, calcium imaging in cells with forced expression of TRPA1; assay type: cell-based
T1 construct: expressed in transfected cells; host or cells: HEK293T cells, transient transfection with Lipofectamine 2000
Procedure: In the present test, the contribution of the lipid metabolism promoter of the present embodiment to TRPA1 activity was examined by checking the activation of the temperature-sensitive ion channel TRPA1 with a calcium imaging method. The specific testing method of the present test and the results of the test are shown in the following. […]
(§1) Ethyl caproate was added to HEPES buffer (10 mM HEPES, 130 mM NaCl, 5 mM KCl, 10 mM glucose, 2 mM CaCl2·2H2O, 1.2 mM MgCl2·6H2O, pH = 7.40), and thus a test solution of Example 9 containing ethyl caproate in a concentration of 255 ppm was obtained. […] Measurement of fluorescence intensity for the cells with forced expression of TRPA1 was initiated, and, 20 seconds thereafter, 50-µL portions of each of the test solutions prepared were added to three wells. After the lapse of a predetermined period of time, the measurement of fluorescence intensity was completed, and ratios of fluorescence intensity at each time after addition of a test solution as the average of fluorescence intensity before addition of a test solution was assumed as 1 (hereinafter, also referred to as "RFU (relative fluorescence units)") were determined from measurements of fluorescence intensity. Further, change rates in RFU before and after addition of a test solution (hereinafter, also referred to as "ΔRFU") were determined at each time after addition of a test solution. […]

[1] = test system: HEK293T cells without transfer of the TRPA1 gene; test: Test 5: TRPA1 activity test, reference in non-transformed cells; assay type: cell-based, human; conditions: ethyl caproate 255 ppm test solution, 100 ppm in well
Procedure: In the present test, first, human embryonic HEK293T cells were first suspended in DMEM medium to which penicillin-streptomycin (manufactured by Thermo Fisher Scientific, Inc.) and fetal bovine serum (manufactured by Sigma-Aldrich Co. LLC) were added to reach concentrations of 100 Unit/mL, 100 µg/mL, and 10%, respectively, seeded in a 96-well plate at a volume of 100 µL/well, and cultured under conditions of 5% CO2 and 37°C until a cell density reached 70 to 90%.
as §1, with “intensity.” for “intensity. Further, change rates in RFU before and after addition of a test solution (hereinafter, also referred to as "ΔRFU") were determined at each time after addition of a test solution.”

T1 sequence (O75762 whole entry): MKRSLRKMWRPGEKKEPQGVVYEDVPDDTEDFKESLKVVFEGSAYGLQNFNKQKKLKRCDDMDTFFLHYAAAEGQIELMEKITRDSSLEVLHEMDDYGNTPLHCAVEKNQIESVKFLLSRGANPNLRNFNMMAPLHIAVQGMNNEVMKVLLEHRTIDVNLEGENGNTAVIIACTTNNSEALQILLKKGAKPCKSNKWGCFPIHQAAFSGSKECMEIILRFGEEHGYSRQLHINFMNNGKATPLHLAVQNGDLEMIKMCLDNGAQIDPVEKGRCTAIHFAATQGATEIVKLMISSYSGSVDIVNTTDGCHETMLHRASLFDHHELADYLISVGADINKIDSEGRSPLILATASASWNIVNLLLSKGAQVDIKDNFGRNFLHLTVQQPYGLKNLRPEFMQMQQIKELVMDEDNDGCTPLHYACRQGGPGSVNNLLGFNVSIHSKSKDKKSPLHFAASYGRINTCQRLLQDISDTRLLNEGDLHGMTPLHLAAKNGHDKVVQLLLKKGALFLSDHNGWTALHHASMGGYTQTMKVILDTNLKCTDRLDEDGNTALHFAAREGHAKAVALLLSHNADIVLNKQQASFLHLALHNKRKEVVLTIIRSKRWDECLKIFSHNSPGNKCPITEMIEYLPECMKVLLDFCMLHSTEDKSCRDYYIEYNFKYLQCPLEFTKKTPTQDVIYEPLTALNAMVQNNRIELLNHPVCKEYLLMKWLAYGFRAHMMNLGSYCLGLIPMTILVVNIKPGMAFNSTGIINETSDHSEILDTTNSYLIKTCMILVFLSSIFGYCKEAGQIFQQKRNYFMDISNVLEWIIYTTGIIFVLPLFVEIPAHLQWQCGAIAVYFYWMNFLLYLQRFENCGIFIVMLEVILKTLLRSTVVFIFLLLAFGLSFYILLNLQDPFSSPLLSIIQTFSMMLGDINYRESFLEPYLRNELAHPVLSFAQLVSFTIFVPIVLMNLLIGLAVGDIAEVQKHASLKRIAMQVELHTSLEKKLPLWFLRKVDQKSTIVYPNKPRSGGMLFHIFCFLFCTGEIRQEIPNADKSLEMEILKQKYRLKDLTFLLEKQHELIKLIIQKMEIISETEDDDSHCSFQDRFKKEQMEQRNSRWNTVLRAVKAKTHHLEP

| cellular response after co-addition of the TRPA1 inhibitor HC03001 (TRPA1; cells with forced expression of TRPA1, Figure 11) | cellular response of cells with forced expression of TRPA1 (TRPA1; ethyl caproate 100 ppm in well, Figures 9 and 10) | SMILES | amount of released glycerol, comparison with control (3T3-L1 cells) | control ratio: amount of glycerol relative to medium of Comparative Example 4, Average (3T3-L1 cells) | maximum value of ΔRFU after addition of test solution, Average [1] |
| --- | --- | --- | --- | --- | --- |
| – | – | NC[C@H](O)c1ccc(O)c(O)c1 [Comparative Example 5, Noradrenaline, reference compound] | almost no difference in the amount of released glycerol | 1.002 | – |
| disappeared | evoked cellular response | CCCCCC(=O)OCC [Example 9, Ethyl caproate] | – | – | 0.046 |
| – | – | CCCCCC(=O)OCC [Example 6, Ethyl caproate] | – | 1.063 | – |
| – | – | CCCCCC(=O)OCC [Example 8, Ethyl caproate] | significant increase in the amount of released glycerol | 1.118 | – |
| – | – | CCCCCC(=O)OCC [Example 7, Ethyl caproate] | increasing tendency in the amount of released glycerol | 1.089 | – |
